For orientation: IC50 means the midpoint of a concentration-inhibition curve. One may read the inhibition as the percentage by which the read-out fell short of the control. A lower inhibition goes with little suppression.

We go through 23 compounds from patent US10364238B2, “N-((het) arylmethyl)-heteroaryl-carboxamides compounds as plasma kallikrein inhibitors” (KALVISTA PHARMACEUTICALS LIMITED, priority 2014, dated 2019).

What all share (assay type): biochemical
Assay [1] concerns the target Human plasma kallikrein (Homo sapiens (Human), UniProt P03952). The assay can be described thus: Determination of the IC50 for plasma kallikrein. Particulars: 25° C., fluorogenic substrate H-DPro-Phe-Arg-AFC; read-out: IC50 (human PKaI). Here is the method:
Determination of the IC50 for Plasma Kallikrein
Human plasma kallikrein (Protogen) was incubated at 25° C. with the fluorogenic substrate H-DPro-Phe-Arg-AFC and various concentrations of the test compound. Residual enzyme activity (initial rate of reaction) was determined by measuring the change in […] at 410 nm and the IC50 value for the test compound was determined.

The target in assay [2] is Human FXIa (Homo sapiens (Human), UniProt P03951). The assay can be described thus: Determination of the % inhibition for FXIa. Particulars: 40 μM test compound, 25° C., substrate Z-Gly-Pro-Arg-AFC. Here is the method: Determination of the % Inhibition for FXIa
Sequence of Human FXIa (P03951 388-625): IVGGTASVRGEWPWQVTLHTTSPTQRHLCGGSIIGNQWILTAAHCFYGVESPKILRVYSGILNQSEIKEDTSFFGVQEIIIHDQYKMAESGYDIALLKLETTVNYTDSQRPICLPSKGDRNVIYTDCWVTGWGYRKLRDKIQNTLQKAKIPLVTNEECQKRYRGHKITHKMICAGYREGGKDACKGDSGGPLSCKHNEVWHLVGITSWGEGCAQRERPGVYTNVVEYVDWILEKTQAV
Sequence of Human FXIa (P03951 19-387 partner): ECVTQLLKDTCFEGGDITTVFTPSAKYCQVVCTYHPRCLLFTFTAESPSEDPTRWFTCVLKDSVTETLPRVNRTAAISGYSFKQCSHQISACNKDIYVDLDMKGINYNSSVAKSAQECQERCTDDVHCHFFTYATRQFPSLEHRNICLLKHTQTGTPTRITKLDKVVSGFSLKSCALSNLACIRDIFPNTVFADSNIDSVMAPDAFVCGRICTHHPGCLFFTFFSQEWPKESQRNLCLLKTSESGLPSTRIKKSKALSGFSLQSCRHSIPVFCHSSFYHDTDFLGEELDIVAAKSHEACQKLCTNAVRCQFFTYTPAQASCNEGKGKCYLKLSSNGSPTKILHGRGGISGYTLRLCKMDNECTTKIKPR
Human FXIa (Enzyme Research Laboratories) was incubated at 25° C. with the fluorogenic substrate Z-Gly-Pro-Arg-AFC and 40 μM of the test compound. Residual enzyme activity (initial rate of reaction) was determined by measuring the change in […].

Assay [3] addresses Human KLK1 (Homo sapiens (Human), UniProt P06870). Put plainly: Determination of the IC50 for KLK1. The settings on record: 25° C., fluorogenic substrate H-DVal-Leu-Arg-AFC. Here is the method: Determination of the IC50 for KLK1
Human KLK1 (Callbiochem) was incubated at 25° C. with the fluorogenic substrate H-DVal-Leu-Arg-AFC and various concentrations of the test compound. Residual enzyme activity (initial rate of reaction) was determined by measuring the change in […] at 410 nm and the IC50 value for the test compound was determined.

Sequence of Human KLK1 (P06870 25-262): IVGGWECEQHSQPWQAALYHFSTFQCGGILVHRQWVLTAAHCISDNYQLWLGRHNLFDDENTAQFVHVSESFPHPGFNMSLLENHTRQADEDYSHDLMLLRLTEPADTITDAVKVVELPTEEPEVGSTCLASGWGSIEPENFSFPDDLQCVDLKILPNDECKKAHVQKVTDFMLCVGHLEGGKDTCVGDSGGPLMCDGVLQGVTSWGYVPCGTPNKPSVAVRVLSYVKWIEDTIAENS
Sequence of Human plasma kallikrein (P03952 391-638): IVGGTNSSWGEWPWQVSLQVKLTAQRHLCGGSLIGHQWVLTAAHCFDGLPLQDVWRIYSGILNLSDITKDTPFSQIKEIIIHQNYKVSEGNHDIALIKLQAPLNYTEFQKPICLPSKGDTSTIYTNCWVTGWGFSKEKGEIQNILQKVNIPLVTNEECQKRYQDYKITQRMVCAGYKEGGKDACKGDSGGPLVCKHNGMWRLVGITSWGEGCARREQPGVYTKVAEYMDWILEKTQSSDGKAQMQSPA
Sequence of Human plasma kallikrein (P03952 20-390 partner): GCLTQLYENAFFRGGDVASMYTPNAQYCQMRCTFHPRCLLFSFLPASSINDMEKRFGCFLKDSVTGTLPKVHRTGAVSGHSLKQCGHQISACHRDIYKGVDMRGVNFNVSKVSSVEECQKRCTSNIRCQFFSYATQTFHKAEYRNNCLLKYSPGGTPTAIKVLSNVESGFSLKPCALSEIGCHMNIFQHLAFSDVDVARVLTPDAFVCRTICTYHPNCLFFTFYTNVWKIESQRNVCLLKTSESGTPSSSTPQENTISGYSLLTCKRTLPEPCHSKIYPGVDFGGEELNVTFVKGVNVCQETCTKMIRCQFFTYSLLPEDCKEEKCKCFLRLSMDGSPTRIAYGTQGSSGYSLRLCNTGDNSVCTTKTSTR

Turning to `NC(=O)c1cccc(CNC(=O)c2cn(Cc3ccc(Cn4ccccc4=O)cc3)nc2C2CC2)c1` [Example 49, N-[(3-carbamoylphenyl)methyl]-3-cyclopropyl-1-({4-[(2-oxopyridin-1-yl)methyl]phenyl}methyl)pyrazole-4-carboxamide], the values for the IC50 in assay [1] and in assay [3] were 5450 nM and over 10000 nM, respectively. Moreover, the “% Inhibition @ 40 μM (human FXIa)” value in assay [2] was determined as 0%.

Turning to `NC(=O)c1ccccc1CNC(=O)c1cn(Cc2ccc(Cn3ccccc3=O)cc2)nc1C1CC1` [Example 48, N-[(2-carbamoylphenyl)methyl]-3-cyclopropyl-1-({4-[(2-oxopyridin-1-yl)methyl]phenyl}methyl)pyrazole-4-carboxamide], the values for the IC50 in assay [1] and in assay [3] were 647 nM and over 10000 nM, respectively. The compound further displayed an inhibition at 40 µM in assay [2] of 2%.

The compound `COCc1nn(Cc2ccc(Cn3ccccc3=O)cc2)cc1C(=O)NCc1c(F)ccc(OC)c1C(F)F` [Example 83, N-{[2-(difluoromethyl)-6-fluoro-3-methoxyphenyl]methyl}-3-(methoxymethyl)-1-({4-[(2-oxopyridin-1-yl)methyl]phenyl}methyl)pyrazole-4-carboxamide] yielded an inhibition at 40 µM in assay [2] of 14%.

Consider `COCc1nn(Cc2ccc(Cn3ccccc3=O)cc2)cc1C(=O)NCc1cc(F)cc(OC)c1` [Example 95, N-[(3-fluoro-5-methoxyphenyl)methyl]-3-(methoxymethyl)-1-({4-[(2-oxopyridin-1-yl)methyl]phenyl}methyl)pyrazole-4-carboxamide], for which the IC50 is 308 nM in assay [1] and over 40000 nM in assay [3]. The compound further returned an inhibition at 40 µM in assay [2] of 1%.

Regarding `COCc1nn(Cc2ccc(Cn3ccccc3=O)cc2)cc1C(=O)NCc1cc(OC)ccc1C(F)(F)F` [Example 79, N-{[5-methoxy-2-(trifluoromethyl)phenyl]methyl}-3-(methoxymethyl)-1-({4-[(2-oxopyridin-1-yl)methyl]phenyl}methyl)pyrazole-4-carboxamide], the IC50 in assay [1] is 14.7 nM; in assay [3], over 40000 nM. Further, in assay [2], the inhibition at 40 µM is 2%.

Consider `COCc1nn(Cc2ccc(Cn3ccccc3=O)cc2)cc1C(=O)NCc1ccc(C)cc1F` [Example 65, N-[(2-fluoro-4-methylphenyl)methyl]-3-(methoxymethyl)-1-({4-[(2-oxopyridin-1-yl)methyl]phenyl}methyl)pyrazole-4-carboxamide], for which the IC50 in assay [1] was 43.3 nM; in assay [3], over 10000 nM. The compound also yielded an inhibition at 40 µM in assay [2] of 0%.

On to `COc1cccc(CNC(=O)c2cn(Cc3ccc(Cn4ccccc4=O)cc3)nc2C2CC2)c1F` [Example 52, 3-cyclopropyl-N-[(2-fluoro-3-methoxyphenyl)methyl]-1-({4-[(2-oxopyridin-1-yl)methyl]phenyl}methyl)pyrazole-4-carboxamide], for which the values for the IC50 in assay [1] and in assay [3] were 23.3 nM and over 40000 nM, respectively. Further, in assay [2], the “% Inhibition @ 40 μM (human FXIa)” value was determined as 1%.

Take `COCc1nn(Cc2cnc3cc(Cl)ccc3c2)cc1C(=O)NCc1cccc(OC)c1F` [Example 3, 1-(7-Chloro-quinolin-3-ylmethyl)-3-methoxymethyl-1H-pyrazole-4-carboxylic acid 2-fluoro-3-methoxy-benzylamide]: the values for the IC50 in assay [1] and in assay [3] were 2580 nM and over 10000 nM, respectively. The compound further displayed an inhibition at 40 µM in assay [2] of 3%.

As to `COCc1nn(Cc2ccc(Cn3ccccc3=O)cc2)cc1C(=O)NCc1cc(OC)ccc1F` [Example 64, N-[(2-fluoro-5-methoxyphenyl)methyl]-3-(methoxymethyl)-1-({4-[(2-oxopyridin-1-yl)methyl]phenyl}methyl)pyrazole-4-carboxamide], the IC50 in assay [1] was 35.2 nM; in assay [3], over 10000 nM. For the same compound, in assay [2], the inhibition at 40 µM turned out to be 0%.

As to `COc1cccc(CNC(=O)c2cn(Cc3ccc(Cn4ccccc4=O)cc3)c(C(F)(F)F)n2)c1F` [Example 124, N-[(2-fluoro-3-methoxyphenyl)methyl]-1-({4-[(2-oxopyrldin-1-yl)methyl]phenyl}methyl)-2-(trifluoromethyl)imidazole-4-carboxamide], the IC50 in assay [1] was 191 nM; in assay [3], over 10000 nM. Besides, testing at 40 µM in assay [2] gave an inhibition of 0%.

For `COCc1nn(Cc2ccc(Cn3ccccc3=O)cc2)cc1C(=O)NCc1c(OC)ccc(OC)c1F` [Example 54, N-[(2-fluoro-3,6-dimethoxyphenyl)methyl]-3-(methoxymethyl)-1-({4-[(2-oxopyridin-1-yl)methyl]phenyl}methyl)pyrazole-4-carboxamide], the IC50 in assay [1] is 2.1 nM; in assay [3] it was over 40000 nM. Besides, testing at 40 µM in assay [2] gave an inhibition of 17%.

For the compound `COCc1nn(Cc2ccc(Cn3ccncc3=O)cc2)cc1C(=O)NCc1cccc(OC)c1F` [Example 104, N-[(2-fluoro-3-methoxyphenyl)methyl]-3-(methoxymethyl)-1-({4-[(2-oxopyrazin-1-yl)methyl]phenyl}methyl)pyrazole-4-carboxamide], the IC50 is 691 nM in assay [1] and over 10000 nM in assay [3]. The same compound had an inhibition at 40 µM in assay [2] of 0%.

Turning to `COCc1nn(Cc2ccc(Cn3ccccc3=O)cc2)cc1C(=O)NCc1cc(OC)cc(OC)c1` [Example 1, N-(3,5-Dimethoxybenzyl)-3-(methoxymethyl)-1-(4-((2-oxopyridin-1(2H)-yl)methyl)benzyl)-1H-pyrazole-4-carboxamide], the IC50 in assay [1] was 698 nM; in assay [3], over 10000 nM. Also, the inhibition at 40 µM in assay [2] turned out to be 0%.

For `COCc1nn(Cc2ccc(Cn3ccccc3=O)cc2)cc1C(=O)NCc1c(F)cccc1OC(F)F` [Example 92, N-{[2-(difluoromethoxy)-6-fluorophenyl]methyl}-3-(methoxymethyl)-1-({4-[(2-oxopyridin-1-yl)methyl]phenyl}methyl)pyrazole-4-carboxamide], the IC50 was 16 nM in assay [1] and over 10000 nM in assay [3]. The same compound registered an inhibition at 40 µM in assay [2] of 4%.

Take `COc1cccc(CNC(=O)c2cn(Cc3ccc(Cn4ccccc4=O)cc3)nc2N(C)C)c1F` [Example 59, 3-(dimethylamino)-N-[(2-fluoro-3-methoxyphenyl)methyl]-1-({4-[(2-oxopyridin-1-yl)methyl]phenyl}methyl)pyrazole-4-carboxamide]: the IC50 in assay [1] is 73.4 nM; in assay [3], over 10000 nM. The same compound yielded an inhibition at 40 µM in assay [2] of 0%.

For the compound `COCc1nn(Cc2ccc(Cn3ccccc3=O)cc2)cc1C(=O)NCc1ccccc1C(F)F` [Example 68, N-{[2-(difluoromethyl)phenyl]methyl}-3-(methoxymethyl)-1-({4-[(2-oxopyridin-1-yl)methyl]phenyl}methyl)pyrazole-4-carboxamide], the IC50 in assay [1] is 81.1 nM; in assay [3], over 10000 nM. This compound returned an inhibition at 40 µM in assay [2] of 6%.

On to `COCc1nn(Cc2ccc(Cn3ccccc3=O)cc2)cc1C(=O)NCc1cccc(OC(F)F)c1F` [Example 90, N-{[3-(difluoromethoxy)-2-fluorophenyl]methyl}-3-(methoxymethyl)-1-({4-[(2-oxopyridin-1-yl)methyl]phenyl}methyl)pyrazole-4-carboxamide], for which the IC50 in assay [1] was 154 nM; in assay [3], over 40000 nM. For the same compound, the inhibition at 40 µM in assay [2] came to 2%.

Regarding `COCc1nn(Cc2ccc(Cn3ccccc3=O)cc2)cc1C(=O)NCc1cc(Cl)cc(OC)c1` [Example 67, N-[(3-chloro-5-methoxyphenyl)methyl]-3-(methoxymethyl)-1-({4-[(2-oxopyridin-1-yl)methyl]phenyl}methyl)pyrazole-4-carboxamide], the IC50 is 393 nM in assay [1] and over 10000 nM in assay [3]. Further, the inhibition at 40 µM in assay [2] stood at 0%.

For `COCc1nn(Cc2ccc(Cn3ccccc3=O)cc2)cc1C(=O)NCc1cnccc1C(F)(F)F` [Example 37, 3-(methoxymethyl)-1-({4-[(2-oxopyridin-1-yl)methyl]phenyl}methyl)-N-{[4-(trifluoromethyl)pyridin-3-yl]methyl}pyrazole-4-carboxamide], in assay [2], 40 µM produced 0% inhibition.

`CCOc1cccc(CNC(=O)c2cn(Cc3ccc(Cn4cc(C)cn4)cc3)nc2C(F)(F)F)c1` [Example 6, N-[(3-ethoxyphenyl)methyl]-1-({4-[(4-methylpyrazol-1-yl)methyl]phenyl}methyl)-3-(trifluoromethyl)pyrazole-4-carboxamide] showed an inhibition at 40 µM in assay [2] of 0%.

`COCc1nn(Cc2ccc(Cn3ccccc3=O)cc2)cc1C(=O)NCc1c(Cl)ccc(OC)c1F` [Example 99, N-[(6-chloro-2-fluoro-3-methoxyphenyl)methyl]-3-(methoxymethyl)-1-({4-[(2-oxopyridin-1-yl)methyl]phenyl}methyl)pyrazole-4-carboxamide] displayed an inhibition at 40 µM in assay [2] of 4%.

The compound `COCc1nn(Cc2ccc(Cn3ccccc3=O)cc2)cc1C(=O)NCc1ccc(C)nc1` [Example 39, 3-(methoxymethyl)-N-[(6-methylpyridin-3-yl)methyl]-1-({4-[(2-oxopyridin-1-yl)methyl]phenyl}methyl)pyrazole-4-carboxamide] yielded an inhibition at 40 µM in assay [2] of 0%.

On to `COCc1nn(Cc2ccc(Cn3ccccc3=O)cc2)cc1C(=O)NCc1cccc(O)c1F` [Example 129, N-[(2-fluoro-3-hydroxyphenyl)methyl]-3-(methoxymethyl)-1-({4-[(2-oxopyridin-1-yl)methyl]phenyl}methyl)pyrazole-4-carboxamide], for which, in assay [1], the IC50 was 437 nM. In assay [2], this compound returned an inhibition at 40 µM of 0%.
